We go through two compounds from article PMC12524486, “Characterization of α-L-Rhamnosidase and β-D-Glucosidase Subunits of Naringinase Immobilized on a Magnetic Polysaccharide Carrier” (International Journal of Molecular Sciences, 2025).

Test [1] relates to T1, β-D-glucosidase subunit of free naringinase from A. niger KMS.
T1 construct: gene beta-D-glucosidase; native secreted enzyme in a crude naringinase preparation (culture fluid ultrafiltered, acetone precipitated)
The test is described as follows: p-nitrophenol release at […] nm, initial rates, Lineweaver-Burk. In kind it is biochemical, Aspergillus niger. The conditions noted are these: free enzyme (crude naringinase preparation), 0.1 M buffer pH 4.0, 50 °C, substrate 0.4-1.5 mM.

In test [2] the test system is T2, α-L-rhamnosidase subunit of free naringinase from A. niger KMS.
T2 construct: gene alpha-L-rhamnosidase; native secreted enzyme in a crude naringinase preparation (culture fluid ultrafiltered, acetone precipitated)
Described as above. In kind it is biochemical, Aspergillus niger. The conditions noted are these: free enzyme (crude naringinase preparation), 0.1 M buffer pH 4.0, 50 °C, substrate 0.4-1.5 mM.

As for `O=[N+]([O-])c1ccc(O[C@@H]2O[C@H](CO)[C@@H](O)[C@H](O)[C@H]2O)cc1` [pNPG, 4-nitrophenyl β-D-glucopyranoside], the Km (in general, the concentration of substrate that gives half-maximal velocity) in test [1] amounted to 2720 ± 78 µM.
In the case of `C[C@@H]1O[C@@H](Oc2ccc([N+](=O)[O-])cc2)[C@H](O)[C@H](O)[C@H]1O` [pNPR, 4-nitrophenyl α-L-rhamnopyranoside], the Km in test [2] came to 2080 ± 35.5 µM.
